Laboratory results taken from US20250066335A1, “POLYSUBSTITUTED 4-HYDROXYPYRIDINE AND 4-HYDROXYQUINOLINE DERIVATIVES AS GPR84 ANTAGONISTS” (UNIVERSITY OF COPENHAGEN, priority 2021, published 2025).
pIC50: −log10 of the molar value.

Target: T1, GPR84 (Homo sapiens, UniProt Q9NQS5)
T1 construct: expressed in transfected cells; host or cells: HTLA cells (HEK293 line stably expressing a tTA-dependent luciferase reporter and a β-arrestin2-TEV fusion gene), transiently transfected with PEI
Test: PRESTO-Tango β-arrestin2 recruitment assay, GPR84 antagonistic activity
Format: cell-based
Details: antagonist activity in the Presto-TANGO assay; inhibition of the response from the agonist ZQ-16 (100 nM); HTLA cells
Experimental: PRESTO-Tango β-arrestin recruitment assay (W.K. Kroeze et al., 2015). HTLA cells (a HEK293 cell line stably expressing a tTA-dependent luciferase reporter and a β-arrestin2-TEV fusion gene) were maintained in Dulbecco's Modified Eagle's Medium (DMEM) supplemented with 10% Fetal Bovine Serum (dFBS), 100 U/mL penicillin and 100 μg/mL streptomycin, 2 μg/mL puromycin and 100 μg/mL hygromycin B in a humidified atmosphere at 37° C. in 5% CO2. For transfection, cells were plated at 9×10^6 to 10×10^6 cells per 15-cm cell-culture dish (day 1). The following day (day 2), cells were transfected by adding 5 μg DNA and 15 μg polyethylenimine (PEI) diluted in 1 mL Opti-MEM (Reduced Serum Medium supplied by ThermoFisher). On day 3, transfected cells were transferred at 25000 cells per well in 40 μl of medium into poly-l-lysine-coated and rinsed 384-well white, clear-bottomed cell-culture plates (Greiner Bio-One). On day 4, dilutions of the ligands to be tested were prepared in 1% dFBS DMEM and 10 μL were added to each well. On day 5, 20 μl per well of Bright-Glo solution (Promega) diluted 10-fold in assay buffer (Hanks' Balanced Salt Solution [HBSS], 20 mM HEPES, 1 mM CaCl2, 1 mM MgCl2, pH adjusted to 7.4 by 5 M NaOH) was added to each well. After incubation for 20 min at room temperature, luminescence was counted in an Enspire luminescence counter at 384 nm. Results in the form of relative luminescence units (RLU) were exported into Excel spreadsheets, and GraphPad Prism was used for analysis of data. To measure constitutive activity, no ligand was added on day 4.
The GPR84 antagonistic activity of the compounds was determined using the PRESTO-Tango β-arrestin2 recruitment assay (Assay I, see assays above), from which the concentration of each compound required for 50% inhibition (IC50) of the response from the agonist ZQ-16 (100 nM) was determined. The antagonistic activity for each compound is given in Table 1 as the pIC50, which is the negative log of the IC50 value when converted to molar.

T1 sequence (Q9NQS5 whole entry, the tested form may be a part): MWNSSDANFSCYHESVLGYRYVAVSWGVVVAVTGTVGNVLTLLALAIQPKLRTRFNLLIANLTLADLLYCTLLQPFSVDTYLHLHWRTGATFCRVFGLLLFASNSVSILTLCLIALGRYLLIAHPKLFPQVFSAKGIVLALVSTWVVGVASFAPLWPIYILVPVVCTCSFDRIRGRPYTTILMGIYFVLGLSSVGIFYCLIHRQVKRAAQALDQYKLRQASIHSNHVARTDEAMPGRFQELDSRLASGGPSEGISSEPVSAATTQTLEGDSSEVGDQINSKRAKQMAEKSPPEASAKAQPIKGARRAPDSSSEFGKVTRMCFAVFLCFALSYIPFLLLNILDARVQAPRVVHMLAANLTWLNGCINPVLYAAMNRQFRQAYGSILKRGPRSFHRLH

pIC50	Structure (SMILES)
8.67	CCCc1ccc(CCc2nc(OCC3CCCCO3)cc(O)c2CC)cc1 (stereo not drawn) [Example 6, 3-Ethyl-2-(4-propylphenethyl)-6-((tetrahydro-2H-pyran-2-yl)methoxy)pyridin-4-ol]
8.54	CCc1c(O)cc(OCC2COCCO2)nc1CCc1ccc(OCC(N)=O)cc1 (stereo not drawn) [Example 37, 2-(4-(2-(6-((1,4-Dioxan-2-yl)methoxy)-3-ethyl-4-hydroxypyridin-2-yl)ethyl)phenoxy)acetamide]
9.01	CCc1c(O)cc(OCC2COCCO2)nc1CCc1ccc(OCCN2C(=O)c3ccccc3C2=O)cc1 (stereo not drawn) [Example 42, 2-(2-(4-(2-(6-((1,4-Dioxan-2-yl)methoxy)-3-ethyl-4-hydroxypyridin-2-yl)ethyl)phenoxy)ethyl)isoindoline-1,3-dione]
8.95	CCCc1ccc(CCc2nc(OCC3CCCCO3)cc(O)c2CCC(=O)O)cc1 (stereo not drawn) [Example 14, Sodium 3-(4-hydroxy-2-(4-propylphenethyl)-6-((tetrahydro-2H-pyran-2-yl)methoxy)pyridin-3-yl)propanoate]
9.45	CCc1c(O)cc(OC[C@@H]2COCCO2)nc1CCc1ccc(OC)cc1OC [Example 53, (S)-6-((1,4-dioxan-2-yl)methoxy)-2-(2,4-dimethoxyphenethyl)-3-ethylpyridin-4-ol]
6.75	CCCc1ccc(CCc2nc(OCC3CCCCO3)cc(O)c2CCc2ccccc2)cc1 (stereo not drawn) [Example 11, 3-Phenethyl-2-(4-propylphenethyl)-6-((tetrahydro-2H-pyran-2-yl)methoxy)pyridin-4-ol]
6.92	CCCCc1ccc(-c2nc(OC[C@@H]3COCCO3)cc(O)c2CC)cc1 [Example 57, (S)-6-((1,4-dioxan-2-yl)methoxy)-2-(4-butylphenyl)-3-ethylpyridin-4-ol]
8.27	CCc1c(O)cc(OCC2COCCO2)nc1CCc1ccc(OCc2nc(C(=O)O)co2)cc1 (stereo not drawn) [Example 48, 2-((4-(2-(6-((1,4-Dioxan-2-yl)methoxy)-3-ethyl-4-hydroxypyridin-2-yl)ethyl)phenoxy)methyl)oxazole-4-carboxylic acid]
7.07	CCCc1ccc(CCc2nc(OCC3CCCCO3)cc(O)c2-c2ccccc2)cc1 (stereo not drawn) [Example 3, 3-Phenyl-2-(4-propylphenethyl)-6-((tetrahydro-2H-pyran-2-yl)methoxy)pyridin-4-ol]
9.68	[2H]C([2H])([2H])C([2H])([2H])Oc1ccc(C([2H])([2H])C([2H])([2H])c2nc(OCC3COCCO3)cc(O)c2CC)cc1 (stereo not drawn) [Example 44, 6-((1,4-Dioxan-2-yl)methoxy)-2-(2-(4-(ethoxy-d5)phenyl)ethyl-1,1,2,2-d4)-3-ethylpyridin-4-ol]
9.11	CCCc1ccc(CCc2nc(OCC3COCCO3)cc(O)c2CC)cc1 (stereo not drawn) [Example 25, 6-((1,4-Dioxan-2-yl)methoxy)-3-ethyl-2-(4-propylphenethyl)pyridin-4-ol]
8.39	CCc1c(O)cc(OCC2COCCO2)nc1CCc1ccc(OCCCCC(=O)O)cc1 (stereo not drawn) [Example 47, 5-(4-(2-(6-((1,4-Dioxan-2-yl)methoxy)-3-ethyl-4-hydroxypyridin-2-yl)ethyl)phenoxy)pentanoic acid]
7.66	CCCc1ccc(CCc2nc(OCC3CCCCO3)cc(O)c2/C=C/C(=O)OCC)cc1 (stereo not drawn) [Example 12, Ethyl (E)-3-(4-hydroxy-2-(4-propylphenethyl)-6-((tetrahydro-2H-pyran-2-yl)methoxy)pyridin-3-yl)acrylate]
5.89	Cc1c(O)cc(OCC2COCCO2)nc1CCc1ccc(OCC(=O)O)cc1 (stereo not drawn) [Example 30, 2-(4-(2-(6-((1,4-Dioxan-2-yl)methoxy)-4-hydroxy-3-methylpyridin-2-yl)ethyl)phenoxy)acetic acid]
8.48	CCOc1ccc(CCc2nc(OCC3COCCO3)cc(O)c2C)cc1 (stereo not drawn) [Example 23, 6-((1,4-Dioxan-2-yl)methoxy)-2-(4-ethoxyphenethyl)-3-methylpyridin-4-ol]
6.85	CCCc1ccc(CCc2nc(OCC3CCCCO3)cc(O)c2-c2ccc(C(=O)O)cc2)cc1 (stereo not drawn) [Example 21, 4-(4-Hydroxy-2-(4-propylphenethyl)-6-((tetrahydro-2H-pyran-2-yl)methoxy)pyridin-3-yl)benzoic acid]
8.77	CCCc1ccc(CCc2nc(OCC3CCCCO3)cc(O)c2CCCO)cc1 (stereo not drawn) [Example 15, 3-(3-Hydroxypropyl)-2-(4-propylphenethyl)-6-((tetrahydro-2H-pyran-2-yl)methoxy)pyridin-4-ol]

pIC50	Structure (SMILES)
7.06	CCOc1ccc(C2CC2c2nc(OCC3COCCO3)cc(O)c2CC)cc1 (stereo not drawn) [Example 51, 6-((1,4-Dioxan-2-yl)methoxy)-2-(2-(4-ethoxyphenyl)cyclopropyl)-3-ethylpyridin-4-ol]
7.75	CC(=O)NCCOc1ccc(CCc2nc(OCC3COCCO3)cc(O)c2C)cc1 (stereo not drawn) [Example 31, N-(2-(4-(2-(6-((1,4-dioxan-2-yl)methoxy)-4-hydroxy-3-methylpyridin-2-yl)ethyl)phenoxy)ethyl)acetamide]
9.06	CCc1c(O)cc(OCC2COCCO2)nc1CCc1ccc(OCCCS(C)(=O)=O)cc1 (stereo not drawn) [Example 39, 6-((1,4-Dioxan-2-yl)methoxy)-3-ethyl-2-(4-(3-(methylsulfonyl)propoxy)phenethyl)pyridin-4-ol]
7.63	CCc1c(O)cc(OC[C@@H]2COCCO2)nc1CCCCc1ccccc1 [Example 56, (S)-6-((1,4-dioxan-2-yl)methoxy)-3-ethyl-2-(4-phenylbutyl)pyridin-4-ol]
9.12	CCc1c(O)cc(OCC2COCCO2)nc1CCc1ccc(OCc2nc(C(=O)OC)co2)cc1 (stereo not drawn) [Example 41, Methyl 2-((4-(2-(6-((1,4-dioxan-2-yl)methoxy)-3-ethyl-4-hydroxypyridin-2-yl)ethyl)phenoxy)methyl)oxazole-4-carboxylate]
7.03	CCCc1ccc(CCc2nc(OCC3CCCCO3)cc(O)c2-c2ccc(O)cc2)cc1 (stereo not drawn) [Example 17, 3-(4-Hydroxyphenyl)-2-(4-propylphenethyl)-6-((tetrahydro-2H-pyran-2-yl)methoxy)pyridin-4-ol]
9.68	CCc1c(O)cc(OCC2COCCO2)nc1CCc1ccc(OCCNC(=O)OC(C)(C)C)cc1 (stereo not drawn) [Example 32, tert-Butyl (2-(4-(2-(6-((1,4-dioxan-2-yl)methoxy)-3-ethyl-4-hydroxypyridin-2-yl)ethyl)phenoxy)ethyl)carbamate]
6.84	CCOc1ccc(CCc2nc(OCC3CCCCO3)cc(O)c2C#N)cc1 (stereo not drawn) [Example 4, 2-(4-Ethoxyphenethyl)-4-hydroxy-6-((tetrahydro-2H-pyran-2-yl)methoxy)nicotinonitrile]
8.52	CCCc1ccc(CCc2nc(OCC3CCCCO3)cc(O)c2Br)cc1 (stereo not drawn) [Example 1, 3-bromo-2-(4-propylphenethyl)-6-((tetrahydro-2H-pyran-2-yl)methoxy)pyridin-4-ol]
9.48	CCc1c(O)cc(OCC2COCCO2)nc1CCc1ccc(OCCOCCNC(=O)OC(C)(C)C)cc1 (stereo not drawn) [Example 34, tert-Butyl (2-(2-(4-(2-(6-((1,4-dioxan-2-yl)methoxy)-3-ethyl-4-hydroxypyridin-2-yl)ethyl)phenoxy)ethoxy)ethyl)carbamate]
9.26	CCc1c(O)cc(OC[C@@H]2COCCO2)nc1CCc1ccc(OC)cc1C#N [Example 55, (S)-2-(2-(6-((1,4-dioxan-2-yl)methoxy)-3-ethyl-4-hydroxypyridin-2-yl)ethyl)-5-methoxybenzonitrile]
6.83	CCCc1ccc(CCc2nc(OCC3CCCCO3)cc(O)c2-c2ccc(OCC(=O)OC)cc2)cc1 (stereo not drawn) [Example 18, Methyl 2-(4-(4-hydroxy-2-(4-propylphenethyl)-6-((tetrahydro-2H-pyran-2-yl)methoxy)pyridin-3-yl)phenoxy)acetate]
7.18	CCCc1ccc(CCc2nc(OCC3CCCCO3)cc(O)c2-c2ccc(C)cc2)cc1 (stereo not drawn) [Example 10, 2-(4-Propylphenethyl)-6-((tetrahydro-2H-pyran-2-yl)methoxy)-3-(p-tolyl)pyridin-4-ol]
7.15	CCCc1ccc(CCc2nc(OCC3CCCCO3)cc(O)c2-c2ccc(CC)cc2)cc1 (stereo not drawn) [Example 16, 3-(4-Ethylphenyl)-2-(4-propylphenethyl)-6-((tetrahydro-2H-pyran-2-yl)methoxy)pyridin-4-ol]
8.88	CCCc1ccc(CCc2nc(OCC3CCCCO3)cc(O)c2C)cc1 (stereo not drawn) [Example 2, 3-Methyl-2-(4-propylphenethyl)-6-((tetrahydro-2H-pyran-2-yl)methoxy)pyridin-4-ol]
7.95	CCOC(=O)COc1ccc(CCc2nc(OCC3COCCO3)cc(O)c2C)cc1 (stereo not drawn) [Example 28, Ethyl 2-(4-(2-(6-((1,4-dioxan-2-yl)methoxy)-4-hydroxy-3-methylpyridin-2-yl)ethyl)phenoxy)acetate]
